From patent US8399465B2, “Compounds with two fused bicyclic heteroaryl moieties as modulators of leukotriene A4 hydrolase” (Janssen Pharmaceutica NV, priority 2009, dated 2013)
Structures can show the parent of a compound that is named as a salt.

Legend:
[1] = target: T1, recombinant human LTA4 hydrolase (rhLTA4H) (Homo sapiens, UniProt P09960); experiment: Recombinant human LTA4 hydrolase assay for LTA4 hydrolase inhibitor activity; type: biochemical; conditions: rhLTA4H, LTB4 by immunoassay; single determination or average of two or more; mark after value = form tested: ′ free base, ″ hydrochloride, ^ formate; read-out: IC50
T1 construct: made in house; host or cells: Spodoptera frugiperda (Sf-9) cells, baculovirus (pFastBac1)
T1 sequence (P09960 1-611): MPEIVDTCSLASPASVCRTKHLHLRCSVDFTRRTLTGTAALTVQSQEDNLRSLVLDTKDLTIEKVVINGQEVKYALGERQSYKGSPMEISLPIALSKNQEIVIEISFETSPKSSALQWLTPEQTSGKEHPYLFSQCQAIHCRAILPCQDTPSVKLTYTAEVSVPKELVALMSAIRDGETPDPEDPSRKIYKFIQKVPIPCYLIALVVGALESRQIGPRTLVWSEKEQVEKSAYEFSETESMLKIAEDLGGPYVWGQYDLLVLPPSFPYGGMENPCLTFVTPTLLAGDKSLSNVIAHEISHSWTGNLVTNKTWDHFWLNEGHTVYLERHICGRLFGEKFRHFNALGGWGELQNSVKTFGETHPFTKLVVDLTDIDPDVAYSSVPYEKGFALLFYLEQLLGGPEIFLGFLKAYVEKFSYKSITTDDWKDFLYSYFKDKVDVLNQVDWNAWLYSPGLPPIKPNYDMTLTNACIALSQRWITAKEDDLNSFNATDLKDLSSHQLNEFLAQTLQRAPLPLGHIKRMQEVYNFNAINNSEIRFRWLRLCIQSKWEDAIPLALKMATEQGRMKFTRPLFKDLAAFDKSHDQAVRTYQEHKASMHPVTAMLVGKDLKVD
Outline: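 Baculovirus/Sf-9-expressed human LTA4H (10 ng) was preincubated 10 min at rt with compound in assay buffer (10% DMSO in compound dilution), then reacted 30 min at rt with LTA4 free acid made from its methyl ester. LTB4 produced was measured by ELISA after dilution; IC50 from non-linear regression, single or averaged determinations.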

[2] = test system: LTB4 production in murine blood (LTA4H); experiment: LTB4 production by calcium ionophore-stimulated murine blood for LTA4H inhibitor activity; type: cell-based, CD-1 mice; conditions: Mus musculus; murine blood diluted 1 in 15, A23187 stimulated; single determination or average; mark after value = form tested: ′ free base, ″ hydrochloride, ^ formate; read-out: IC50
Description: Assay 2: LTB4 Production by Calcium Ionophore-Stimulated Murine Blood for LTA4H Inhibitor Activity
CD-1 mice were sacrificed, and blood was collected in heparin-containing syringes by cardiac puncture. […] After the microtiter plate contents were incubated for 15 min at 37° C. in a humidified incubator, calcium ionophore A23187 (Sigma Chemical Co., St. Louis, Mo.) was added to each sample well (final concentration=7 μg/mL). The incubation was continued under the same conditions for an additional 30 min to allow LTB4 formation. The reaction was terminated by centrifugation (833×g, 10 min at 4° C.), and supernatants were analyzed for LTB4 by a commercially available enzyme-linked immunoassay (Cayman Chemical Co.) according to the manufacturer's instructions. Positive controls, under essentially identical conditions but without addition of an inhibitor compound, and negative unstimulated controls, containing all assay components except calcium ionophore, were routinely run in each experiment. […] The values presented here are the result of a single determination or an average of two or more determinations.

## O=C1CCCN1C1CCN(Cc2c[nH]c3cc(Oc4nc5ncccc5s4)ccc23)CC1 [Example 20, 1-{1-[6-(Thiazolo[4,5-b]pyridin-2-yloxy)-1H-indol-3-ylmethyl]-piperidin-4-yl}-pyrrolidin-2-one]
[1]
  IC50: 2 nM
[2]
  IC50: 81 nM

## NC(=O)C1CCN(Cc2c[nH]c3cc(Oc4nc5ccccc5s4)ccc23)CC1 [Example 21, 1-[6-(Benzothiazol-2-yloxy)-1H-indol-3-ylmethyl]-piperidine-4-carboxylic acid amide]
[1]
  IC50: 5 nM
[2]
  IC50: 161 nM

## CNC(=O)C1CCN(Cc2c[nH]c3cc(Oc4nc5ccccc5s4)ccc23)CC1 [Example 22, 1-[6-(Benzothiazol-2-yloxy)-1H-indol-3-ylmethyl]-piperidine-4-carboxylic acid methylamide]
[1]
  IC50: 2 nM
[2]
  IC50: 79 nM

## O=C(C1CCN(Cc2c[nH]c3cc(Oc4nc5ccccc5s4)ccc23)CC1)N1CCCC1 [Example 23, {1-[6-(Benzothiazol-2-yloxy)-1H-indol-3-ylmethyl]-piperidin-4-yl}-pyrrolidin-1-yl-methanone]
[1]
  IC50: 5 nM
[2]
  IC50: 114 nM

## O=C(C1CCN(Cc2c[nH]c3cc(Oc4nc5ccccc5s4)ccc23)CC1)N1CCCCC1 [Example 24, {1-[6-(Benzothiazol-2-yloxy)-1H-indol-3-ylmethyl]-piperidin-4-yl}-piperidin-1-yl-methanone]
[1]
  IC50: 2 nM
[2]
  IC50: 341 nM

## O=C(C1CCN(Cc2c[nH]c3cc(Oc4nc5ccccc5s4)ccc23)CC1)N1CCOCC1 [Example 25, {1-[6-(Benzothiazol-2-yloxy)-1H-indol-3-ylmethyl]-piperidin-4-yl}-morpholin-4-yl-methanone]
[1]
  IC50: 2 nM
[2]
  IC50: 100 nM

## CN1CCN(C(=O)C2CCN(Cc3c[nH]c4cc(Oc5nc6ccccc6s5)ccc34)CC2)CC1 [Example 26, {1-[6-(Benzothiazol-2-yloxy)-1H-indol-3-ylmethyl]-piperidin-4-yl}-(4-methyl-piperazin-1-yl)-methanone]
[1]
  IC50: 7 nM
[2]
  IC50: 188 nM

## NC(=O)[C@H]1CCCN(Cc2c[nH]c3cc(Oc4nc5ccccc5s4)ccc23)C1 [Example 27, (3S)-1-[6-(Benzothiazol-2-yloxy)-1H-indol-3-ylmethyl]-piperidine-3-carboxylic acid amide]
[1]
  IC50: 19 nM
[2]
  IC50: 136 nM

## OCC1CCN(Cc2c[nH]c3cc(Oc4nc5ccccc5s4)ccc23)CC1 [Example 28, {1-[6-(Benzothiazol-2-yloxy)-1H-indol-3-ylmethyl]-piperidin-4-yl}-methanol]
[1]
  IC50: 15 nM
[2]
  IC50: 79 nM

## CCOC(=O)NC1CCN(Cc2c[nH]c3cc(Oc4nc5ccccc5s4)ccc23)CC1 [Example 29, {1-[6-(Benzothiazol-2-yloxy)-1H-indol-3-ylmethyl]-piperidin-4-yl}-carbamic acid ethyl ester]
[1]
  IC50: 15 nM
[2]
  IC50: 234 nM

## O=C1CCCN1C1CCN(Cc2c[nH]c3cc(Oc4nc5ccccc5s4)ccc23)CC1 [Example 30, 1-{1-[6-(Benzothiazol-2-yloxy)-1H-indol-3-ylmethyl]-piperidin-4-yl}-pyrrolidin-2-one]
[1]
  IC50: 11 nM
[2]
  IC50: 143 nM

## c1ccc2sc(Oc3cnc4c(CN5CCCCC5)c[nH]c4c3)nc2c1 [Example 31, 2-(3-Piperidin-1-ylmethyl-1H-pyrrolo[3,2-b]pyridin-6-yloxy)-benzothiazole]
[1]
  IC50: 55 nM
[2]
  IC50: 188 nM

## c1ccc2sc(Oc3cnc4c(CN5CCOCC5)c[nH]c4c3)nc2c1 [Example 32, 2-(3-Morpholin-4-ylmethyl-1H-pyrrolo[3,2-b]pyridin-6-yloxy)-benzothiazole]
[1]
  IC50: 96 nM
[2]
  IC50: 258 nM

## NC(=O)C1CCN(Cc2c[nH]c3cc(Oc4nc5ccccc5s4)cnc23)CC1 [Example 33, 1-[6-(Benzothiazol-2-yloxy)-1H-pyrrolo[3,2-b]pyridin-3-ylmethyl]-piperidine-4-carboxylic acid amide]
[1]
  IC50: 42 nM
[2]
  IC50: 1520 nM

## c1cnc2nc(Oc3ccc4c(CN5CCc6sc7ccccc7c6C5)c[nH]c4c3)sc2c1 [Example 34, 2-[6-(Thiazolo[4,5-b]pyridin-2-yloxy)-1H-indol-3-ylmethyl]-1,2,3,4-tetrahydro-benzo[4,5]thieno[3,2-c]pyridine formate]
[1]
  IC50: 20 nM
[2]
  IC50: 401 nM

## c1cnc2nc(Oc3ccc4c(CN5CCc6c(sc7ccccc67)C5)c[nH]c4c3)sc2c1 [Example 35, 2-[6-(Thiazolo[4,5-b]pyridin-2-yloxy)-1H-indol-3-ylmethyl]-1,2,3,4-tetrahydro-benzo[4,5]thieno[2,3-c]pyridine]
[1]
  IC50: 34 nM
[2]
  IC50: 234 nM

## Clc1ccc2sc3c(c2c1)CN(Cc1c[nH]c2cc(Oc4nc5ncccc5s4)ccc12)CC3 [Example 36, 8-Chloro-2-[6-(thiazolo[4,5-b]pyridin-2-yloxy)-1H-indol-3-ylmethyl]-1,2,3,4-tetrahydro-benzo[4,5]thieno[3,2-c]pyridine formate]
[1]
  IC50: 77 nM
[2]
  IC50: 423 nM

## Clc1ccc2sc3c(c2c1)CCN(Cc1c[nH]c2cc(Oc4nc5ncccc5s4)ccc12)C3 [Example 37, 6-Chloro-2-[6-(thiazolo[4,5-b]pyridin-2-yloxy)-1H-indol-3-ylmethyl]-1,2,3,4-tetrahydro-benzo[4,5]thieno[2,3-c]pyridine formate]
[1]
  IC50: 8 nM
[2]
  IC50: 310 nM

## Fc1ccc2sc3c(c2c1)CN(Cc1c[nH]c2cc(Oc4nc5ncccc5s4)ccc12)CC3 [Example 38, 8-Fluoro-2-[6-(thiazolo[4,5-b]pyridin-2-yloxy)-1H-indol-3-ylmethyl]-1,2,3,4-tetrahydro-benzo[4,5]thieno[3,2-c]pyridine]
[1]
  IC50: 29 nM
[2]
  IC50: 350 nM

## c1cnc2nc(Oc3ccc4c(CN5CCOCC5)c[nH]c4c3)sc2c1 [Example 40, 2-(3-Morpholin-4-ylmethyl-1H-indol-6-yloxy)-thiazolo[4,5-b]pyridine]
[1]
  IC50: 2 nM
[2]
  IC50: 23 nM

## c1cnc2nc(Oc3ccc4c(CN5CCSCC5)c[nH]c4c3)sc2c1 [Example 42, 2-(3-Thiomorpholin-4-ylmethyl-1H-indol-6-yloxy)-thiazolo[4,5-b]pyridine]
[1]
  IC50: < 1 nM
[2]
  IC50: 27 nM

## CC(=O)N[C@H]1C[C@H]2CC[C@@H](C1)N2Cc1c[nH]c2cc(Oc3nc4cccnc4s3)ccc12 [Example 43, meso-endo-N-{8-[6-(Thiazolo[5,4-b]pyridin-2-yloxy)-1H-indol-3-ylmethyl]-8-aza-bicyclo[3.2.1]oct-3-yl}-acetamide]
[1]
  IC50: 6 nM
[2]
  IC50: 409 nM

## O=C1C[C@@H](O)CN1C1CCN(Cc2c[nH]c3cc(Oc4nc5ccccc5s4)ccc23)CC1 [Example 44, (4R)-1-{1-[6-(Benzothiazol-2-yloxy)-1H-indol-3-ylmethyl]-piperidin-4-yl}-4-hydroxy-pyrrolidin-2-one]
[1]
  IC50: 6 nM
[2]
  IC50: 222 nM

## O=C(O)C1CCN(Cc2c[nH]c3cc(Oc4nc5ccccc5s4)ccc23)CC1 [Example 45, 1-[6-(Benzothiazol-2-yloxy)-1H-indol-3-ylmethyl]-piperidine-4-carboxylic acid]
[1]
  IC50: 6 nM
[2]
  IC50: 1340 nM

## O=C(O)CC1CCN(Cc2c[nH]c3cc(Oc4nc5ccccc5s4)ccc23)CC1 [Example 46, {1-[6-(Benzothiazol-2-yloxy)-1H-indol-3-ylmethyl]-piperidin-4-yl}-acetic acid]
[1]
  IC50: 15 nM
[2]
  IC50: 667 nM

## O=C(O)C1CCCN(Cc2c[nH]c3cc(Oc4nc5ccccc5s4)ccc23)C1 (stereo not drawn) [Example 47, 1-[6-(Benzothiazol-2-yloxy)-1H-indol-3-ylmethyl]-piperidine-3-carboxylic acid]
[1]
  IC50: 21 nM
[2]
  IC50: 870 nM

## CC(=O)N(CC(=O)O)[C@H]1C[C@H]2CC[C@@H](C1)N2Cc1c[nH]c2ccc(Oc3nc4ccccc4s3)cc12 [Example 49, meso-endo-(Acetyl-{8-[5-(benzothiazol-2-yloxy)-1H-indol-3-ylmethyl]-8-aza-bicyclo[3.2.1]oct-3-yl}-amino)-acetic acid]
[1]
  IC50: 13 nM
[2]
  IC50: 10000 nM
